# Data taken from patent US20060229233A1, “Compositions and methods for treating neurological disorders” (ID Biomedical Corporation, priority 2004, published 2006).
# Read-outs that look alike come from different tables or passages of the source. Marks after values point to notes of the source that are not given here.
# Assays:
# Aβ40 and Aβ42 [1] = assay: Total brain Aβ by sandwich ELISA, J20 APP transgenic mice; format: in vivo
# Aβ = assay: Anti-Aβ antibody level (IgG, OD) in immunized J20 APP transgenic mice; format: in vivo
# Protocol: Antibody levels were measured against Aβ in animals immunized with MOG or PLP to determine if there was cross reactivity with Aβ and Aβ antibody titers as compared to those from animals immunized with Aβ. […] To definitively establish that antibodies were not playing a role, 16-month-old J20 mice bred to μMT B-cell deficient mice were immunized with MOG 35-55 in CFA followed by administration of Pertussis toxin.
# Aβ40 and Aβ42 [2] = assay: Total brain Aβ by sandwich ELISA, J20 APP transgenic mice; format: in vivo; conditions: for Total brain Aβ: subcutaneous immunization in CFA + pertussis toxin
# Protocol: FIG. 1: Effect of subcutaneous immunization on total Aβ levels in the brain. To quantify amyloid burden, the right hemisphere was extracted in 5.0 M guanidinium-chloride (pH 8) for 3 hours at room temperature. Dilutions were used to measure levels of Aβ40 and Aβ42 by sandwich enzyme-linked immunosorbent assays (ELISA).
# Amyloid quantification. To quantify amyloid burden, the right hemisphere was extracted in 5.0 M guanidinium-chloride (pH 8) for 3 hours at room temperature. Dilutions were used to measure levels of insoluble (amyloid-associated) […] and Aβ42 by sandwich enzyme-linked immunosorbent assays (ELISA). […] Brains were frozen in the presence of OCT paraformaldehyde, cut to 14-μm longitudinal sections used for immunohistological staining and amyloid fibril quantification. […] Images (magnification ×20) from these sections were collected from a 3CCD color video camera and analyzed with appropriate software (NIH; Imaging Research). The amount of amyloid fibril was expressed as a percentage per mm^2 hippocampal region as measured by the software.
# J20 APP transgenic mice = format: in vivo; conditions: for occurrence of EAE: immunization in CFA + pertussis toxin
# Protocol: Induction and clinical evaluation of EAE in APP+ mice. (B6D2)F1 or (B6XSJL)F1 APP+ (WT or B-cell deficient μMT) and non-tg littermates were immunized in the hind footpads with 100 μg MOG(35-55), PLP 139-151 or 100 μg β-amyloid peptide (1-40) in CFA. Immediately thereafter and again 48 hours later mice received an i.p. injection containing 150 ng of pertussis toxin in 0.2 ml PBS. Animals were monitored for symptoms of EAE beginning 7 days after immunization and scored as follows: 0, no disease; 1, tail paralysis; 2, hind limb weakness; 3, hind limb paralysis; 4, hind limb plus forelimb paralysis; and 5, moribund.
# Nasal vaccination. Glatiramer acetate: 25 μg was given on days 1, 2, 4 and 5 the first week followed by a weekly boost for six weeks. IVX-908: 1 μg/mouse was given on days 1 and 5 the first week followed by a weekly boost for six weeks. BSA+IVX-908: 25 μg of BSA plus 1 ug IVX-908 were given on days 1 and 5 the first week, and 25 μg of BSA alone was given on days 2 and 4, followed by six weekly boosts of the combination of BSA+IVX-908. GA+IVX-908: 25 μg of GA plus 1 μg IVX-908 were given on days 1 and 5 the first week, and 25 μg of GA alone was given on days 2 and 4, followed by six weekly boosts of the combination of GA+IVX-908.
# [3] = system: hippocampus of APP tg mice; assay: Immunohistochemistry of hippocampus in immunized animals; format: in vivo; conditions: for activated microglia (CD11b) in hippocampus: immunization in CFA, APP tg mice
# Protocol: Immunohistology. The staining was performed utilizing the following markers: T-cells (CD3; BD Biosciences:553057), microglia/macrophages (CD11b; Serotec:MCA74G), (C-MFR; Cymbus Biotech:21080096), IFN-γ (Pharmingen: 559065), IL-10 (Pharmingen:559063) and TGF-β (RD:AB-20-PB). Anti-amyloid antibodies (R1282) were a gift of Dennis Seloke. Brain sections were further subject to Haematoxylin staining. Sections were evaluated in a blinded manner, and controls included use of isotype-matched mAbs as previously described. For each treatment the quantification was done from the hippocampal region of three different brain sections (the same region, Bregma −1.34, that were used for ThS staining). The results are expressed as the mean of the labeled cells for each marker.
# APP non-transgenic mice = assay: Microglial activation in APP non-transgenic mice; format: in vivo; conditions: parenteral with CFA/PT or nasal
# Aβ fibrils = format: in vivo, mice; conditions: for % Area of thioflavin positive Aβ plaques (hippocampus): subcutaneous immunization in CFA + pertussis toxin
# Protocol: Amyloid quantification. To quantify amyloid burden, the right hemisphere was extracted in 5.0 M guanidinium-chloride (pH 8) for 3 hours at room temperature. Dilutions were used to measure levels of insoluble (amyloid-associated) […] and Aβ42 by sandwich enzyme-linked immunosorbent assays (ELISA). To measure Aβ fibrils, the left hemisphere was fixed in 4% […] O/N followed by 4.5% sucrose for 4 hours then 20% Sucrose for O/N at 4° C. Brains were frozen in the presence of OCT paraformaldehyde, cut to 14-μm longitudinal sections used for immunohistological staining and amyloid fibril quantification. Well-defined hippocampal regions (Bregma −1.34), were selected for quantification of the amount of amyloid fibril in plaques using thioflavin-S staining. Images (magnification ×20) from these sections were collected from a 3CCD color video camera and analyzed with appropriate software (NIH; Imaging Research). The amount of amyloid fibril was expressed as a percentage per mm^2 hippocampal region as measured by the software.
# microglial phagocytosis = conditions: Cha, A. et al. (2001) GLIA 33(1):87-95; cited from earlier work
# [4] = nasal immunization, J20 APP transgenic mice
# [5] = level of OD at titer of 1:500 IgG, subcutaneous immunization in CFA + pertussis toxin, J20 APP transgenic mice
# [6] = immunization in CFA + pertussis toxin, APP transgenic mice
# [7] = subcutaneous (footpad) immunization in CFA + pertussis toxin, J20 APP transgenic mice, scale 0-5
# [8] = μMT B-cell deficient J20 APP+ mice
# [9] = μMT B-cell deficient APP+ mice, CFA + Pertussis toxin
# [10] = Subcutaneous (CFA/P.T.), B-deficient mice
Substance,Anti-Aβ Antibody (Aβ; [5]) [OD],reduction of total brain Aβ (ELISA) / total amyloid load vs. control (Aβ40 and Aβ42 [2]; [6]) [%],Total brain Aβ (Aβ40 and Aβ42 [2]; J20 APP transgenic mice),occurrence of EAE (J20 APP transgenic mice),EAE score (J20 APP transgenic mice; [7]),"CD3, number of cells per hippocampal region ([3]; Subcutaneous (CFA/P.T.))","CD11b, number of cells per hippocampal region ([3]; Subcutaneous (CFA/P.T.))","IFN-γ, number of cells per hippocampal region ([3]; Subcutaneous (CFA/P.T.))","IL-10, number of cells per hippocampal region ([3]; Subcutaneous (CFA/P.T.))","M-CSFR, number of cells per hippocampal region ([3]; Subcutaneous (CFA/P.T.))","TGF-β, number of cells per hippocampal region ([3]; Subcutaneous (CFA/P.T.))",reduction of staining for Aβ fibril in the hippocampus (thioflavin S) vs. controls (Aβ fibrils; [6]) [%],% Area of thioflavin positive Aβ plaques (hippocampus) (Aβ fibrils; J20 APP transgenic mice),activated microglia (CD11b) in hippocampus [3] [cells/hippocampus region],other results
glatiramer acetate [GA],0,70,39.1 ± 12.8 ^c ng/ml,no clinical EAE,0,61 ± 12 ^i cells per hippocampal region,227 ± 61 ^i cells per hippocampal region,85 ± 11 ^iv cells per hippocampal region,59 ± 7 cells per hippocampal region,57 ± 8 cells per hippocampal region,31 ± 7 cells per hippocampal region,92,0.26 ± 0.1 ^d %,–,"effect on total Aβ levels in the brain (Aβ40 and Aβ42 [1]; nasal administration): slight reduction; Total brain Aβ (Aβ40 and Aβ42 [1]; [4]): 97.6 ± 15.5 ng/mL; Anti-Aβ Antibody (Aβ; level of OD 450 at titer of 1:50 IgG, nasal immunization, J20 APP transgenic mice): 0 OD 450; EAE score (J20 APP transgenic mice; [4]): 0; CD3, number of cells per hippocampal region ([3]; NASAL): 35 ± 19 cells per hippocampal region; CD11b, number of cells per hippocampal region ([3]; NASAL): 136 ± 12 cells per hippocampal region; IFN-γ, number of cells per hippocampal region ([3]; NASAL): 53 ± 3 ^i cells per hippocampal region; IL-10, number of cells per hippocampal region ([3]; NASAL): 75 ± 7 cells per hippocampal region; M-CSFR, number of cells per hippocampal region ([3]; NASAL): 30 ± 9 cells per hippocampal region; TGF-β, number of cells per hippocampal region ([3]; NASAL): 77 ± 10 cells per hippocampal region; microglial activation in APP non-transgenic mice (APP non-transgenic mice): No microglial activation; effect on Aβ fibrils / fibrillar Aβ staining (Aβ fibrils; mouse, in vivo): did not affect Aβ fibrils; % Area of thioflavin S positive Aβ plaques (hippocampus) (Aβ fibrils; [4]): 2.06 ± 0.8%"
human β-amyloid peptide (Aβ amino acids 1-40),0.75,–,60.8 ± 16 ^a ng/ml,no EAE was observed,0,10 ± 2 cells per hippocampal region,106 ± 27 cells per hippocampal region,9 ± 2 cells per hippocampal region,44 ± 5 cells per hippocampal region,34 ± 11 cells per hippocampal region,41 ± 5 cells per hippocampal region,–,0.83 ± 0.3 ^a %,106±27,–
"myelin oligodendrocyte glycoprotein (MOG) peptide (amino acids 35-55) (MEVGWYRSPFSRVVHLYRNGK; UniProt Q61885 63-83, looked up, fragment)",0,94,8.4 ± 2.1 ^b ng/ml,–,2.5 ± 0.8,142 ± 19 ^iv cells per hippocampal region,349 ± 34.3 ^iv cells per hippocampal region,109 ± 7 ^iv cells per hippocampal region,21 ± 9 ^ii cells per hippocampal region,79 ± 5 ^i cells per hippocampal region,20 ± 5 ^iii cells per hippocampal region,92,0.22 ± 0.1 ^b %,349±34.3,"anti-Aβ antibodies (Aβ; MOG immunization): not detected; Anti-Aβ Antibody (Aβ; level of OD at titer of 1:500 IgG, subcutaneous, μMT B-cell deficient J20 APP+ mice): 0 OD; reduction of total brain Aβ (ELISA) compared to Aβ 1-40 immunized mice (Aβ40 and Aβ42 [2]; [6]): 86%; Total brain Aβ (Aβ40 and Aβ42 [2]; [8]): 11.4 ± 2.7 ^b ng/ml; reduction in amyloid compared to control by ELISA for total brain amyloid (Aβ40 and Aβ42 [2]; [9]): 90%; EAE score (J20 APP transgenic mice; subcutaneous immunization in CFA + pertussis toxin, μMT B-cell deficient J20 APP+ mice): 2.7 ± 0.4; CD3, number of cells per hippocampal region [3, 10]: 195 ± 12 ^iv cells per hippocampal region; CD11b, number of cells per hippocampal region [3, 10]: 462 ± 23 ^iv cells per hippocampal region; IFN-γ, number of cells per hippocampal region [3, 10]: 119 ± 18 ^iv cells per hippocampal region; IL-10, number of cells per hippocampal region [3, 10]: 25 ± 5 ^i cells per hippocampal region; M-CSFR, number of cells per hippocampal region [3, 10]: 77 ± 6 ^i cells per hippocampal region; TGF-β, number of cells per hippocampal region [3, 10]: 22 ± 8 ^ii cells per hippocampal region; reduction of staining for Aβ fibril in the hippocampus (thioflavin S) compared to mice immunized with Aβ 1-40 (Aβ fibrils; [6]): 73%; % Area of thioflavin positive Aβ plaques (hippocampus) (Aβ fibrils; [8]): 0.27 ± 0.04 ^b %; reduction in amyloid compared to control by ThS staining (Aβ fibrils; [9]): 90%"
bovine serum albumin [BSA/CFA],–,–,–,no EAE was observed,–,–,–,–,–,–,–,–,–,76±17,–
INF-gamma: Th1-type cytokine INF-gamma,–,–,–,–,–,–,–,–,–,–,–,–,–,–,augmentation of microglial phagocytosis (microglial phagocytosis): 75 % above untreated
